Laboratory results taken from patent US20260242351A1, “LZK INHIBITORS” (Uereka Biosciences, Inc., priority 2023, published 2026).
Structures can show the parent of a compound that is named as a salt.

How the values were obtained:
DLK = target: T1, DLK (Homo sapiens, UniProt Q12852); test: LZK and DLK Inhibition Assay (competition binding to liganded affinity beads, qPCR readout): DLK; settings: kinase produced in HEK-293 cells, 11-point 3-fold dilution series
T1 construct: made in house; host or cells: HEK-293 cells
T1 sequence (Q12852 1-859): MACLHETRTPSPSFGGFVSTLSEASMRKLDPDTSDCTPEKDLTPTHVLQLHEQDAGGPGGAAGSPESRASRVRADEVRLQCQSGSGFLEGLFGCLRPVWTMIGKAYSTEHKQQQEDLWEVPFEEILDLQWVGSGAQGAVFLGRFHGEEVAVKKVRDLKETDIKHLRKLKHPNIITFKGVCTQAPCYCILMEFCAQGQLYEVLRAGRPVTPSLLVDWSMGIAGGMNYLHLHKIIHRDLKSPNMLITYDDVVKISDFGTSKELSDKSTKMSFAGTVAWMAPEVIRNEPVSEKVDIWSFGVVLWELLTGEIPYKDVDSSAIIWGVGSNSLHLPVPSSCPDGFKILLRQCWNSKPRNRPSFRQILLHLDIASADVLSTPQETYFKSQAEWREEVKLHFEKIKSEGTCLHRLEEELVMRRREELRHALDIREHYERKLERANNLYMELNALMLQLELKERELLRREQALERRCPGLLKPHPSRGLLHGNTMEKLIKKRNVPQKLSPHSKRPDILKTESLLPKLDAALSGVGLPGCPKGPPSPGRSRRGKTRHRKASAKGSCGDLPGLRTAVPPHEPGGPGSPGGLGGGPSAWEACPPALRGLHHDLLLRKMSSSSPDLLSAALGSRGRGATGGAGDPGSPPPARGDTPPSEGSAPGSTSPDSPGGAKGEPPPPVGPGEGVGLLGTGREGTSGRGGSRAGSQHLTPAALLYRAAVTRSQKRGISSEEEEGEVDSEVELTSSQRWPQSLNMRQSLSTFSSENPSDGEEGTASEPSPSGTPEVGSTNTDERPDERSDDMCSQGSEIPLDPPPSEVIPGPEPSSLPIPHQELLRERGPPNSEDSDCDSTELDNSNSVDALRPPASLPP
Experimental: (§1) The kinases were produced in HEK-293 cells and subsequently tagged with DNA for qPCR detection. Streptavidin-coated magnetic beads were treated with biotinylated small molecule ligands for 30 minutes at room temperature to generate affinity resins for the kinase assays. The liganded beads were blocked with excess biotin and washed with blocking buffer (SeaBlock (Pierce), 1% BSA, 0.05% Tween 20, 1 mM DTT) to remove unbound ligand and to reduce non-specific binding. Binding reactions were assembled by combining LZK and DLK kinases, liganded affinity beads, and test compounds in 1× binding buffer (20% SeaBlock, 0.17×PBS, 0.05% Tween 20, 6 mM DTT). Test compounds were prepared as 111× stocks in 100% DMSO. Kds were determined using an 11-point 3-fold compound dilution series with three DMSO control points. All compounds for Kd measurements are distributed by acoustic transfer (non-contact dispensing) in 100% DMSO. The compounds were then diluted directly into the assays such that the final concentration of DMSO was 0.9%. All reactions performed in polypropylene 384-well plate. Each was a final volume of 0.02 mL. The assay plates were incubated at room temperature with shaking for 1 hour and the affinity beads were washed with wash buffer (lx PBS, 0.05% Tween 20). The beads were then re-suspended in elution buffer (1×PBS, 0.05% Tween 20, 0.5 μM nonbiotinylated affinity ligand) and incubated at room temperature with shaking for 30 minutes. The kinase concentration in the eluates was measured by qPCR.

LZK = target: T2, LZK (Homo sapiens, UniProt O43283); test: LZK and DLK Inhibition Assay (competition binding to liganded affinity beads, qPCR readout): LZK; settings: kinase produced in HEK-293 cells, 11-point 3-fold dilution series
T2 construct: made in house; host or cells: HEK-293 cells
T2 sequence (O43283 1-966): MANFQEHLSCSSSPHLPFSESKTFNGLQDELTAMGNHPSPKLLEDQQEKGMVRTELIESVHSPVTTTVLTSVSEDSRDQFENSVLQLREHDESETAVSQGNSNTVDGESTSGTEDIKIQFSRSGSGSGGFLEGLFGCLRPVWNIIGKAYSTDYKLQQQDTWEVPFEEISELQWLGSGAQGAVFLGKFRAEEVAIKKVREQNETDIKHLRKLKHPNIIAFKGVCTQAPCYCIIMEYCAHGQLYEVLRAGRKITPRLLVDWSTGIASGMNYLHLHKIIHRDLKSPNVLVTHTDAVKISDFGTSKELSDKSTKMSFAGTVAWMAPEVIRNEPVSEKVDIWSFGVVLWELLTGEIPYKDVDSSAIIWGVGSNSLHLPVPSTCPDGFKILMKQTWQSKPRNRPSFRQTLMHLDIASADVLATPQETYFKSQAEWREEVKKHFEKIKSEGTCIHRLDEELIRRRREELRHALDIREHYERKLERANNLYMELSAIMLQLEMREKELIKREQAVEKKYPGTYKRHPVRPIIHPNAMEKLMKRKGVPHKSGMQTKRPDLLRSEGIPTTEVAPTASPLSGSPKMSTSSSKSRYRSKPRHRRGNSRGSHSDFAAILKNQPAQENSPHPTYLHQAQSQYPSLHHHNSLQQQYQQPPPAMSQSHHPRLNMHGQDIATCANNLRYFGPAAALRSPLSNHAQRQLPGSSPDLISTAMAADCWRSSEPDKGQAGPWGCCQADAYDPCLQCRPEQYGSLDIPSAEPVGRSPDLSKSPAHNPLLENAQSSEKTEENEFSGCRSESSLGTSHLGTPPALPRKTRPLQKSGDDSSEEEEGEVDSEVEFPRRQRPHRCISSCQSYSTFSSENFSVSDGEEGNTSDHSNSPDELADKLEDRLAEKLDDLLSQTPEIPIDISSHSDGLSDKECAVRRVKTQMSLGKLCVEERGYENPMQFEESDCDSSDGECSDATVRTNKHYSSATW
Experimental: as §1

Row | IC50 (DLK) [nM] | IC50 (LZK) [nM] | Compound
1 | ≤ 100 | ≤ 100 | N#Cc1c(C2CCN(CC3CC3)CC2)cc(Nc2cnc(C3CC3)cn2)nc1N1CC2CC2C1 (stereo not shown) [Compound 8, 2-(3-Azabicyclo[3.1.0]hexan-3-yl)-4-(1-(cyclopropylmethyl)piperidin-4-yl)-6-((5-cyclopropylpyrazin-2-yl)amino)nicotinonitrile formic acid salt]
2 | 1000 to 10000 | 1000 to 10000 | Clc1c(C2CCN(CC3CC3)CC2)cc(Nc2cnc(C3CC3)cn2)nc1N1CC2CC2C1 (stereo not shown) [Compound 7, N-(6-(3-Azabicyclo[3.1.0]hexan-3-yl)-5-chloro-4-(1-(cyclopropylmethyl)piperidin-4-yl)pyridin-2-yl)-5-cyclopropylpyrazin-2-amine TFA salt]
3 | 100 to 1000 | 100 to 1000 | Fc1c(N2CCNCC2)cc(Nc2ccc(C(F)F)cn2)nc1N1CCOCC1 [Compound 3, N-(5-(Difluoromethyl)pyridin-2-yl)-5-fluoro-6-morpholino-4-(piperazin-1-yl)pyridin-2-amine di-TFA salt]
4 | ≤ 100 | ≤ 100 | Fc1c(C2CCN(CC3CC3)CC2)cc(Nc2cnc(C3CC3)cn2)nc1N1CC2CC2C1 (stereo not shown) [Compound 1, N-(6-(3-Azabicyclo[3.1.0]hexan-3-yl)-4-(1-(cyclopropylmethyl)piperidin-4-yl)-5-fluoropyridin-2-yl)-5-cyclopropylpyrazin-2-amine]
5 | 1000 to 10000 | 100 to 1000 | Fc1c(N2CCNCC2)cc(Nc2ccc(C(F)(F)F)cn2)nc1N1CCOCC1 [Compound 5, 5-Fluoro-6-morpholino-4-(piperazin-1-yl)-N-(5-(trifluoromethyl)pyridin-2-yl)pyridin-2-amine]
6 | 1000 to 10000 | 1000 to 10000 | Fc1c(N2CC3CC2CN3)cc(Nc2ccc(C(F)F)cn2)nc1N1CCOCC1 (stereo not shown) [Compound 4, 4-(2,5-Diazabicyclo[2.2.1]heptan-2-yl)-N-(5-(difluoromethyl)pyridin-2-yl)-5-fluoro-6-morpholinopyridin-2-amine di-TFA salt]
7 | 1000 to 10000 | 1000 to 10000 | Fc1c(N2CC3CC2CN3)cc(Nc2ccc(C(F)(F)F)cn2)nc1N1CCOCC1 (stereo not shown) [Compound 6, 4-(2,5-Diazabicyclo[2.2.1]heptan-2-yl)-5-fluoro-6-morpholino-N-(5-(trifluoromethyl)pyridin-2-yl)pyridin-2-amine]
8 |  | ≤ 100 | Fc1c(N2CCNCC2)cc(Nc2cnc(C3CC3)cn2)nc1N1CCOCC1 [Compound 10, 5-Cyclopropyl-N-(5-fluoro-6-morpholino-4-(piperazin-1-yl)pyridin-2-yl)pyrazin-2-amine]
9 | ≤ 100 | ≤ 100 | Nc1c(C2CCN(CC3CC3)CC2)cc(Nc2cnc(C3CC3)cn2)nc1N1CC2CC2C1 (stereo not shown) [Compound 9, 6-(3-azabicyclo[3.1.0]hexan-3-yl)-4-(1-(cyclopropylmethyl)piperidin-4-yl)-N2-(5-cyclopropylpyrazin-2-yl)pyridine-2,5-diamine 2,2,2-trifluoroacetate]
10 | ≤ 100 | 100 to 1000 | Fc1c(C2CCN(CC3CC3)CC2)cc(N2CC3CC3C2)nc1Nc1cnc(C2CC2)cn1 (stereo not shown) [Compound 2, N-(6-(3-Azabicyclo[3.1.0]hexan-3-yl)-4-(1-(cyclopropylmethyl)piperidin-4-yl)-3-fluoropyridin-2-yl)-5-cyclopropylpyrazin-2-amine]
